Earlier results, collected in patent US11986479B2 (priority 2022, dated 2024).
Read-outs that look alike come from different tables or passages of the source.

Assays:
[1] = not given; remark: listed apart in the source
[2] = not given; remark: listed apart in the source

## Cn1cnc([N+](=O)[O-])c1Sc1ncnc2nc[nH]c12 [Azathoprine, 1H-Purine, 6-[(1-methyl-4-nitro-1H-imidazol-5-yl)thio]-]
cysteine, glutathione, hydrogen sulfide
  stability in the presence of sulfhydryl compounds: Conversion to mercaptopurine also occurs
Excess sodium hydroxide (0.1N), especially on warming
  stability in solution: hydrolysis to mercaptopurine occurs
Neutral or acid pH
  stability in solution: stable
[1]; solutions of alkali hydroxides / one molar equivalent of alkali
  solubility in alkali: may be dissolved
[1]; water
  solubility in water: insoluble

## C[C@@H]1C[C@H]2[C@@H]3CCC4=CC(=O)C=C[C@]4(C)[C@@]3(F)[C@@H](O)C[C@]2(C)[C@@]1(O)C(=O)CO [Dexamethasone, 9-fluoro-11β,17,21-trihydroxy-16α-methylpregna-1,4-diene-3,20-dione]
air
  stability in air: stable
[1]; water
  solubility in water: practically insoluble

## CCN(CC)C(=S)SSC(=S)N(CC)CC [Disulfiram, bis(diethylthiocarbamoyl) disulfide]
[1]; alcohol
  soluble in alcohol: about 3.8 g in 100 mL
[1]; water
  soluble in water: about 20 mg in 100 mL
[2]; in vivo
  diarrhea in list of adverse reactions: not mentioned

## Sc1ncnc2nc[nH]c12 [Mercaptopurine, 6H-purine-6-thione, 1,7-dihydro-, monohydrate]
[1]; ether
  solubility in ether: practically insoluble
[2]; leukemia patients
  patients who experienced diarrhea: 9%
